The record followed here is PubChem BioAssay AID330 (DTP/NCI, 2004).

The subject of the experiment is P388 leukemia ip, CD2F1 mice, survival T/C. As to the kind of experiment: NCI In Vivo Anticancer Drug Screen. Data for tumor model P388 Leukemia (intraperitoneal) in CD2F1 (CDF1) mice. The note with it: endpoint: median survival time, higher = longer survival. The method, boiled down: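 Mice carrying the transplanted tumor received test compound or vehicle. Survival was recorded in each group, and the value is the treated-group measurement divided by that of the vehicle-treated control group.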

Where [1] appears, read: dose: 50.0 mg/kg/injection, schedule: Q01DX009 (ip), vehicle: saline with Tween-80.
Where [2] appears, read: dose: 50.0 mg/kg/injection, schedule: Q01DX005 (ip), vehicle: saline with Tween-80.
Setting [3] is: dose: 100.0 mg/kg/injection, schedule: Q01DX005 (ip), vehicle: saline with Tween-80.
Where [4] appears, read: dose: 200.0 mg/kg/injection, schedule: Q01DX005 (ip), vehicle: saline with Tween-80.
The mark [5] stands for this setting: dose: 50.0 mg/kg/injection, schedule: Q01DX009 (ip), vehicle: Klucel (hydroxypropylcellulose) (HPC).
Setting [6] is: dose: 100.0 mg/kg/injection, schedule: Q01DX009 (ip), vehicle: Klucel (hydroxypropylcellulose) (HPC).
[7] abbreviates: dose: 200.0 mg/kg/injection, schedule: Q01DX009 (ip), vehicle: Klucel (hydroxypropylcellulose) (HPC).

Structures are written as SMILES. Where “and” joins values, the source holds several entries; their conditions need not be identical. Equal values may be shown once. Toxic doses and inconclusive results are not listed.

With `CCCCCC(CN(C)C)C(=O)/C=C/c1ccc(Cl)cc1` (stereo not given), the T/C (dose: 12.5 mg/kg/injection, schedule: Q01DX009 (ip), vehicle: saline with Tween-80) is 95 % of control; the T/C (dose: 25.0 mg/kg/injection, schedule: Q01DX009 (ip), vehicle: saline with Tween-80) is 96 % of control; the T/C under setting [1] was 113 % of control.
Turning to `COC(=O)Nc1csc(NC(=O)OC)n1`, the T/C was 96 % of control under setting [2], 95 % of control under setting [3] and 87 % of control under setting [4].
Consider `Nc1ncnc2c1ncn2C1C=C(CO)C(O)C1O` (stereo not given), for which the T/C (dose: 1.0 mg/kg/injection, schedule: Q01DX009 (ip), vehicle: saline) was 163 % of control; the T/C (dose: 2.0 mg/kg/injection, schedule: Q01DX009 (ip), vehicle: saline) was 163 % of control; the T/C (dose: 4.0 mg/kg/injection, schedule: Q01DX009 (ip), vehicle: Klucel (hydroxypropylcellulose) (HPC)) was 161 % of control; the T/C (dose: 4.0 mg/kg/injection, schedule: Q01DX009 (ip), vehicle: saline) was 156 % of control; the T/C (dose: 8.0 mg/kg/injection, schedule: Q01DX009 (ip), vehicle: Klucel (hydroxypropylcellulose) (HPC)) was 153 % of control and 161 % of control; the T/C (dose: 8.0 mg/kg/injection, schedule: Q01DX009 (ip), vehicle: saline) is 152 % of control and 182 % of control.
On to `COc1cc(C=C2C(=O)C=CC2=O)ccc1O`, for which the T/C is 92 % of control (dose: 12.5 mg/kg/injection, schedule: Q04DX002 (ip), vehicle: saline) and 96 % of control (dose: 25.0 mg/kg/injection, schedule: Q04DX002 (ip), vehicle: saline).
In the case of `CCOC(=O)NN(C(=O)OCC)C(C(C)=O)c1ccccc1` (stereo not given), the T/C (dose: 60.0 mg/kg/injection, schedule: Q01DX005 (ip), vehicle: Klucel (hydroxypropylcellulose) (HPC)) was 105 % of control; the T/C (dose: 120.0 mg/kg/injection, schedule: Q01DX005 (ip), vehicle: Klucel (hydroxypropylcellulose) (HPC)) is 103 % of control; the T/C (dose: 240.0 mg/kg/injection, schedule: Q01DX005 (ip), vehicle: Klucel (hydroxypropylcellulose) (HPC)) was 103 % of control.
Consider `CCCCN=NN/C=C/C(C)(C)C`, for which the T/C under setting [2] is 115 % of control.
Take `Cl/N=C(\Nc1ccccc1)c1ccccn1`: the T/C was 105 % of control under setting [1] and 96 % of control (dose: 100.0 mg/kg/injection, schedule: Q01DX009 (ip), vehicle: saline with Tween-80).
On to `O=C(CCN1C(=O)c2ccccc2C1=O)Nc1c(I)cc(I)c(C(=O)O)c1I`, for which the T/C (dose: 60.0 mg/kg/injection, schedule: Q01DX005 (ip), vehicle: saline with Tween-80) was 104 % of control; the T/C (dose: 120.0 mg/kg/injection, schedule: Q01DX005 (ip), vehicle: saline with Tween-80) is 106 % of control; the T/C (dose: 240.0 mg/kg/injection, schedule: Q01DX005 (ip), vehicle: saline with Tween-80) was 101 % of control.
For the compound `COc1ccccc1N=NC1=C2Sc3ccccc3N=C1N(c1ccccn1)C(=S)N2c1ccc(Cl)cc1`, the T/C is 103 % of control (dose: 12.5 mg/kg/injection, schedule: Q01DX005 (ip), vehicle: saline with Tween-80); 100 % of control (dose: 25.0 mg/kg/injection, schedule: Q01DX005 (ip), vehicle: saline with Tween-80); 110 % of control and 117 % of control under setting [2].
On to `CCOc1ccc2c(O)csc2c1`, for which the T/C is, setting by setting: (dose: 100.0 mg/kg/injection, schedule: Q04DX003 (ip), vehicle: saline with Tween-80) 100 % of control; (dose: 200.0 mg/kg/injection, schedule: Q04DX003 (ip), vehicle: saline with Tween-80) 100 % of control; (dose: 400.0 mg/kg/injection, schedule: Q04DX003 (ip), vehicle: saline with Tween-80) 90 % of control.
`O=[N+]([O-])c1ccc(/C=C/C=C/c2ccc(S(=O)(=O)F)cc2)c(Cl)c1`: the T/C under setting [5] is 93 % of control, the T/C under setting [6] is 93 % of control and the T/C under setting [7] is 97 % of control.
`COC1CC(N=S(=O)(O)c2ccc(N)cc2)[N-]C(OC)N1.[Ag+]` (stereo not given): the T/C under setting [5] is 97 % of control, the T/C under setting [6] is 93 % of control and the T/C under setting [7] was 102 % of control.
In the case of `CC(C)C1=CC23CCC4C(C)(C(=O)O)CCCC4(C)C2CC1OO3` (stereo not given), the T/C by setting is: (dose: 100.0 mg/kg/injection, schedule: Q01DX009 (ip), vehicle: saline sonified) 95 % of control; (dose: 200.0 mg/kg/injection, schedule: Q01DX009 (ip), vehicle: saline sonified) 100 % of control; (dose: 400.0 mg/kg/injection, schedule: Q01DX009 (ip), vehicle: saline sonified) 100 % of control.
For `CC(C)(O)C1CCCCC1Cl` (stereo not given), the T/C by setting is: under setting [2], 104 % of control; under setting [3], 107 % of control; under setting [4], 104 % of control.
`O=[N+]([O-])c1cccc(S(=O)(=O)N/N=C\c2cc([N+](=O)[O-])ccc2O)c1`: the T/C is 107 % of control under setting [2], 100 % of control under setting [3] and 97 % of control under setting [4].
`O=C1Nc2ccccc2C12Nc1ccccc1S2` (stereo not given): the T/C was 100 % of control under setting [2], 101 % of control under setting [3] and 110 % of control under setting [4].
With `CN1CCN(CCSSCCN2CCN(C)CC2)CC1`, the T/C (dose: 50.0 mg/kg/injection, schedule: Q01DX009 (ip), vehicle: saline) was 109 % of control; the T/C (dose: 100.0 mg/kg/injection, schedule: Q01DX009 (ip), vehicle: saline) is 104 % of control; the T/C (dose: 200.0 mg/kg/injection, schedule: Q01DX009 (ip), vehicle: saline) is 109 % of control.
For the compound `CC(=O)NC1CCC(C2CCCCC2)CC1C1CCCCC1` (stereo not given), the T/C under setting [2] was 107 % of control, the T/C under setting [3] is 98 % of control and the T/C under setting [4] was 102 % of control.
Take `CC(=O)Nc1ccc(C(=O)N/N=C/c2ccccc2O)cc1`: the T/C reads like this: (dose: 6.25 mg/kg/injection, schedule: Q01DX009 (ip), vehicle: Klucel (hydroxypropylcellulose) (HPC)) 90 % of control; (dose: 12.5 mg/kg/injection, schedule: Q01DX009 (ip), vehicle: Klucel (hydroxypropylcellulose) (HPC)) 93 % of control; (dose: 25.0 mg/kg/injection, schedule: Q01DX009 (ip), vehicle: Klucel (hydroxypropylcellulose) (HPC)) 88 % of control.
`COc1cccc2c1C(=N)c1c(O)c3c(c(O)c1C2=O)C[C@@](O)(C(=O)CO)C[C@@H]3OC1CC(N)C(O)C(C)O1` (stereo not given in full): the T/C (dose: 1.56 mg/kg/injection, schedule: Q04DX003 (ip), vehicle: water) is 115 % of control; the T/C (dose: 3.13 mg/kg/injection, schedule: Q04DX003 (ip), vehicle: water) was 118 % of control; the T/C (dose: 6.25 mg/kg/injection, schedule: Q04DX003 (ip), vehicle: water) is 122 % of control; the T/C (dose: 25.0 mg/kg/injection, schedule: Q04DX003 (ip), vehicle: water) is 155 % of control and 163 % of control; the T/C (dose: 50.0 mg/kg/injection, schedule: Q04DX003 (ip), vehicle: water) was 173 % of control and 188 % of control; the T/C (dose: 100.0 mg/kg/injection, schedule: Q04DX003 (ip), vehicle: water) is 194 % of control and 217 % of control. Moreover, the T/C (dose: 150.0 mg/kg/injection, schedule: Q04DX003 (ip), vehicle: water) is 165 % of control.
As for `CCCCCCC(=O)Oc1ccc[nH]c1=O`, the T/C (dose: 25.0 mg/kg/injection, schedule: Q01DX009 (ip), vehicle: distilled water + Tween-80) was 104 % of control; the T/C (dose: 50.0 mg/kg/injection, schedule: Q01DX009 (ip), vehicle: distilled water + Tween-80) is 100 % of control; the T/C (dose: 100.0 mg/kg/injection, schedule: Q01DX009 (ip), vehicle: distilled water + Tween-80) was 97 % of control; the T/C (dose: 200.0 mg/kg/injection, schedule: Q01DX009 (ip), vehicle: distilled water + Tween-80) is 100 % of control; the T/C (dose: 400.0 mg/kg/injection, schedule: Q01DX009 (ip), vehicle: distilled water + Tween-80) is 100 % of control.
Turning to `O=C1C2CSCN2C(=O)C2CSCN12` (stereo not given), the T/C is 102 % of control (dose: 100.0 mg/kg/injection, schedule: Q01DX001 (ip), vehicle: Klucel (hydroxypropylcellulose) (HPC)); 99 % of control (dose: 200.0 mg/kg/injection, schedule: Q01DX001 (ip), vehicle: Klucel (hydroxypropylcellulose) (HPC)); 105 % of control (dose: 400.0 mg/kg/injection, schedule: Q01DX001 (ip), vehicle: Klucel (hydroxypropylcellulose) (HPC)).
As to `CN(C)c1ccc(N=Nc2ccc([As](=O)(O)O)cc2)cc1`, the T/C reads like this: (dose: 0.5 mg/kg/injection, schedule: Q01DX009 (ip), vehicle: saline with Tween-80) 100 % of control; (dose: 1.0 mg/kg/injection, schedule: Q01DX009 (ip), vehicle: saline with Tween-80) 95 % of control.
Regarding `CCC/C(=N/NC(N)=O)C(OC)OC`, the T/C (dose: 37.5 mg/kg/injection, schedule: Q01DX009 (ip), vehicle: saline) was 92 % of control and the T/C (dose: 75.0 mg/kg/injection, schedule: Q01DX009 (ip), vehicle: saline) was 90 % of control.
